For eleven molecules, IC50 results are on record in US11446287B2, “Compounds and methods for EP300 or CBP modulation and indications therefor” (Opna Immuno-Oncology SA, priority 2019, dated 2022).

This assay deals with T1, Recombinant human BRD4 containing dual bromodomains (BRD4-BD12 (1-477)) (Homo sapiens, UniProt O60885).
T1 construct: Recombinant human BRD4 containing dual bromodomains (BRD4-BD12 (1-477)); made in house; host or cells: E. coli BL21-CodonPlus (DE3), modified pET vector
In words: BRD4 Alphascreen binding assay. The method, boiled down: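 His-tagged human BRD4 tandem bromodomains (1-477, E. coli) incubated 1 h at room temperature with biotinylated tetra-acetylated H4 (1-21) peptide and compound in HEPES pH 7.5 buffer with 2 mM DTT. AlphaScreen signal read 30 min after adding beads (7.5 μg/ml); IC50 from four-parameter fit after normalization to controls.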
In general terms: Alpha assays give light when donor and acceptor beads are brought close together.

For orientation: IC50 means the concentration needed to halve the response being measured. With `Cc1noc(C)c1-c1cnc2c(Cc3ccccn3)cn(-c3ccc(C(=O)O)cc3OC(F)(F)F)c2c1` [P-0159, 4-(6-(3,5-dimethylisoxazol-4-yl)-3-(pyridin-2-ylmethyl)-1H-pyrrolo[3,2-b]pyridin-1-yl)-3-(trifluoromethoxy)benzoic acid], the IC50 lay in the range of 0.0001 to 1 µM.

On to `Cc1noc(C)c1-c1cnc2c(-c3cnn(C)c3)c(C(F)(F)F)n([C@@H](C)c3ccccn3)c2c1` [P-0160, (S)-3,5-dimethyl-4-(3-(1-methyl-1H-pyrazol-4-yl)-1-(1-(pyridin-2-yl)ethyl)-2-(trifluoromethyl)-1H-pyrrolo[3,2-b]pyridin-6-yl)isoxazole], for which the half-inhibitory concentration (IC50) fell in the range of 0.0001 to 1 µM. Next, `Cc1noc(C)c1-c1cnc2c(-c3cccc(CC(=O)O)c3)c(C(F)(F)F)n([C@@H](C)c3ccccn3)c2c1` [P-0161, (S)-2-(3-(6-(3,5-dimethylisoxazol-4-yl)-1-(1-(pyridin-2-yl)ethyl)-2-(trifluoromethyl)-1H-pyrrolo[3,2-b]pyridin-3-yl)phenyl)acetic acid]: 8 to 1000 µM. As for `Cc1noc(C)c1-c1cnc2c(-c3cccc(C(=O)O)c3)c(C(F)(F)F)n([C@@H](C)c3ccccn3)c2c1` [P-0162, (S)-3-(6-(3,5-dimethylisoxazol-4-yl)-1-(1-(pyridin-2-yl)ethyl)-2-(trifluoromethyl)-1H-pyrrolo[3,2-b]pyridin-3-yl)benzoic acid], the figure is 8 to 1000 µM. As to `Cc1noc(C)c1-c1cnc2c(C(O)(C3CC3)C3CC3)cn(-c3ccc(C(=O)O)cc3OC(F)(F)F)c2c1` [P-0163, 4-(3-(dicyclopropyl(hydroxy)methyl)-6-(3,5-dimethylisoxazol-4-yl)-1H-pyrrolo[3,2-b]pyridin-1-yl)-3-(trifluoromethoxy)benzoic acid], the IC50 was in the range of 8 to 1000 µM. Next, `Cc1noc(C)c1-c1cnc2c(-c3cc(C(=O)O)ccc3Cl)cn(C(C)(c3ccccn3)c3ccccn3)c2c1` [P-0164, 4-chloro-3-(1-(1,1-di(pyridin-2-yl)ethyl)-6-(3,5-dimethylisoxazol-4-yl)-1H-pyrrolo[3,2-b]pyridin-3-yl)benzoic acid]: 1 to 8 µM; `CCOc1cc(C(=O)O)cc(OCC)c1-n1cc(C(O)(C2CC2)C2CC2)c2ncc(-c3c(C)noc3C)cc21` [P-0165, 4-(3-(dicyclopropyl(hydroxy)methyl)-6-(3,5-dimethylisoxazol-4-yl)-1H-pyrrolo[3,2-b]pyridin-1-yl)-3,5-diethoxybenzoic acid]: 8 to 1000 µM. On to `Cc1noc(C)c1-c1cnc2c(-c3cc(C(=O)O)ccc3C#N)cn(C(C)(c3ccccn3)c3ccccn3)c2c1` [P-0166, 4-cyano-3-(1-(1,1-di(pyridin-2-yl)ethyl)-6-(3,5-dimethylisoxazol-4-yl)-1H-pyrrolo[3,2-b]pyridin-3-yl)benzoic acid], for which the IC50 lay within 0.0001 to 1 µM. Next, `C#Cc1ccccc1-c1cn(C(C)(c2ccccn2)c2ccccn2)c2cc(-c3c(C)noc3C)cnc12` [P-0167, 4-(1-(1,1-di(pyridin-2-yl)ethyl)-3-(2-ethynylphenyl)-1H-pyrrolo[3,2-b]pyridin-6-yl)-3,5-dimethylisoxazole]: 0.0001 to 1 µM. Regarding `CCOc1cc(C(=O)O)cc(OCC)c1-n1cc(-c2ccccc2)c2ncc(-c3c(C)noc3C)cc21` [P-0168, 4-(6-(3,5-dimethylisoxazol-4-yl)-3-phenyl-1H-pyrrolo[3,2-b]pyridin-1-yl)-3,5-diethoxybenzoic acid], the concentration for half-maximal inhibition (IC50) fell in the range of 1 to 8 µM.

With `Cc1noc(C)c1-c1cnc2c(-c3ccccc3C#N)cn(C(C)(c3ccccn3)c3ccccn3)c2c1` [P-0169, 2-(1-(1,1-di(pyridin-2-yl)ethyl)-6-(3,5-dimethylisoxazol-4-yl)-1H-pyrrolo[3,2-b]pyridin-3-yl)benzonitrile], the IC50 fell in the range of 0.0001 to 1 µM.
